# Laboratory results as given in patent US20240376480A1, “TREATMENT OF ELEVATED METABOLITE LEVELS USING NANOCARRIERS” (RAMOT AT TEL-AVIV UNIVERSITY LTD., priority 2021, published 2024).
# Assays:
# aah1Δ apt1Δ yeast model [1] = assay: Yeast growth assay (OD600) in excess-adenine yeast model; format: cell-based; conditions: low and high adenine concentrations (1 mg/L and 4 mg/L)
# Procedure: Yeast growth assays: the strains used in this work were BY4741 (WT) and the adenine salvage mutant, aah1Δ apt1Δ, that was established by a disruption of both AAH1 and APT1. The strains were grown overnight at 30° C. in synthetic defined SD medium (6.7 g/L Yeast Nitrogen Base without Amino Acids (Difco) and 20 g/L glucose (Merck)) containing a specific mixture of amino acids and nucleobases (without adenine). For OD600 measurements, strains were diluted to OD600=0.01. 200 μL of cells were platted on 96 wells microplates (Greiner, F-BOTTOM) with increasing concentrations of adenine (1, 2 and 4 mg/L) and with 2.5% (V/V) of the VLP-riboswitch nano-carries and incubated at 30° C. for 25 h with continuous shaking. OD600 was measured using Tecan™ SPARK 10M plate reader.
# The aah1Δ apt1Δ mutant yeast model was grown in media without adenine or in media with 1, 2, and 4 mg/L of adenine, respectively.
# aah1Δ apt1Δ yeast model [2] = conditions: TA added to the media; cited from earlier work
# [3] = ligand adenine; cited from earlier work
Molecule,growth of the model yeast (aah1Δ apt1Δ yeast model [1]),amyloid-like structures of the adenine inside the yeast (aah1Δ apt1Δ yeast model [2]),Kd [3]
"O=C(OC[C@H]1O[C@@H](OC(=O)c2cc(O)c(O)c(OC(=O)c3cc(O)c(O)c(O)c3)c2)[C@H](OC(=O)c2cc(O)c(O)c(OC(=O)c3cc(O)c(O)c(O)c3)c2)[C@@H](OC(=O)c2cc(O)c(O)c(OC(=O)c3cc(O)c(O)c(O)c3)c2)[C@@H]1OC(=O)c1cc(O)c(O)c(OC(=O)c2cc(O)c(O)c(O)c2)c1)c1cc(O)c(O)c(OC(=O)c2cc(O)c(O)c(O)c2)c1 [TA, tannic acid]",showed an improved growth,significant decrease,
"A58U riboswitch: pbuE adenine riboswitch with uracil substituted for adenine at position 58 (nucleic acid, expressed or natural sequence) GCGCGTTGTATAACCTCAATAATATGGTTTGAGGGTGTCTACCAGGAACCGTAAATTCCTGATTACAACGC",,,273 ± 17 nM
